Assay results: ChEMBL document CHEMBL5131440, “Antischistosomal tetrahydro-γ-carboline sulfonamides” (Bioorg Med Chem Lett, 2022)
Values after ≈ are worked out from the molar mass of the structure shown.

Experiments:
[1] = Intrinsic clearance in mouse liver microsomes assessed per mg protein at 1 uM preincubated for 5 to 10 mins followed by NADPH-regenerating system addition and measured after 2 to 60 mins by LC-MS/MS analysis; assay type: ADME, Microsome; conditions: time 2-60 min
[2] = Solubility of compound in pH 6.5 phosphate buffer by nephelometry; assay type: physicochemical
[3] = Cytotoxicity against rat L6 cells assessed as reduction in cell viability measured after 70 hrs by alamar blue reagent based fluorescence assay; assay type: toxicity
[4] = Lipophilicity, log D of compound at pH 7.4 by gradient HPLC analysis; assay type: physicochemical; conditions: buffer
[5] = Intrinsic clearance in human liver microsomes assessed per mg protein at 1 uM preincubated for 5 to 10 mins followed by NADPH-regenerating system addition and measured after 2 to 60 mins by LC-MS/MS analysis; assay type: ADME, Microsome; conditions: time 2-60 min
[6] = Solubility of compound in pH 2 0.01 M HCl by nephelometry; assay type: physicochemical
Schistosoma mansoni [7] = assay: Antischistosomal activity against Schistosoma mansoni Liberian adult worms assessed as reduction in worm viability measured after 72 hrs by microscopy; assay type: functional, organism-based
Schistosoma mansoni [8] = assay: Antischistosomal activity against Schistosoma mansoni NTS assessed as reduction in parasite viability measured at 24 hrs interval for 72 hrs by bright-field microscopy; assay type: functional, organism-based
Schistosoma mansoni [9] = assay: Antischistosomal activity against Schistosoma mansoni adult worms measured at 24 hrs interval for 72 hrs; assay type: functional, organism-based
Schistosoma mansoni [10] = assay: Antischistosomal activity against Schistosoma mansoni adult worms at 10 uM measured at 24 hrs interval for 72 hrs relative to control; assay type: functional

Structure (SMILES) | intrinsic clearance (CLint) [1] | solubility kinetic [2] | IC50 at 70 h [3] | logD [4] | intrinsic clearance [5] | solubility kinetic [6] | IC50 (Schistosoma mansoni [7]) | IC50 (Schistosoma mansoni [8]) | IC50 (Schistosoma mansoni [9]) | Activity (Schistosoma mansoni [10])
O=S(=O)(c1ccc(F)cc1)N1CCc2[nH]c3ccccc3c2CC1 | > 866 µL/min | < 1.6 µg/mL | 83 µM | 4.2 | 123 µL/min | < 1.6 µg/mL |  |  |  | 
O=C(C1CCCCC1)N1CC(=O)N2CCc3ccccc3C2C1 (centres undefined) [PRAZIQUANTEL] |  |  |  |  |  |  | 0.077 µM |  |  | 
Cc1ccc(S(=O)(=O)N2CCc3[nH]c4ccccc4c3C2)cc1 | 540 µL/min | 1.6 µg/mL (≈ 4.9 µM) | 29 µM | 4.1 | 170 µL/min | 1.6 µg/mL (≈ 4.9 µM) |  |  |  | 
O=S(=O)(C1CCOCC1)N1CCc2[nH]c3ccccc3c2C1 | 674 µL/min | 25 µg/mL (≈ 78 µM) | 160 µM | 2.9 | 34 µL/min | 25 µg/mL (≈ 78 µM) |  |  |  | 
CS(=O)(=O)N1CCc2[nH]c3ccccc3c2C1 | 21 µL/min | 25 µg/mL (≈ 99.9 µM) | 290 µM | 2.6 | 12 µL/min | 25 µg/mL (≈ 99.9 µM) |  |  |  | 
NC(=O)Cn1c2c(c3ccccc31)CN(S(=O)(=O)c1ccc(F)cc1)CC2 | 176 µL/min | 3.1 µg/mL (≈ 8 µM) | 150 µM |  | 75 µL/min | 3.1 µg/mL (≈ 8 µM) |  |  |  | 
NC(=O)c1ccc2[nH]c3c(c2c1)CN(S(=O)(=O)c1ccc(F)cc1)CC3 | 81 µL/min | 6.3 µg/mL (≈ 16.9 µM) | 100 µM | 2.6 | 124 µL/min | 12.5 µg/mL (≈ 33.5 µM) |  |  |  | 
O=S(=O)(c1ccc(F)cc1)N1CCc2[nH]c3ccc(F)cc3c2C1 | > 866 µL/min | 1.6 µg/mL (≈ 4.59 µM) | 150 µM | 4.1 | 105 µL/min | 3.1 µg/mL (≈ 8.9 µM) |  |  |  | 
O=S(=O)(c1ccc(C(F)(F)F)cc1)N1CCc2[nH]c3ccccc3c2C1 | 431 µL/min | < 1.6 µg/mL | 81 µM | 4.3 | 50 µL/min | < 1.6 µg/mL |  |  |  | 
O=S(=O)(c1ccccc1)N1CCc2[nH]c3ccccc3c2C1 | > 866 µL/min | 1.6 µg/mL (≈ 5.12 µM) | 100 µM | 3.9 | 250 µL/min | 1.6 µg/mL (≈ 5.12 µM) |  |  |  | 
O=C(c1ccc2[nH]c3c(c2c1)CN(S(=O)(=O)c1ccc(F)cc1)CC3)N1CCOCC1 | 120 µL/min | 6.3 µg/mL (≈ 14.2 µM) | 130 µM | 3 | 89 µL/min | 12.5 µg/mL (≈ 28.2 µM) |  |  |  | 
O=C(Nc1ccc(F)cc1)N1CCc2[nH]c3ccccc3c2C1 | 130 µL/min | 6.3 µg/mL (≈ 20.4 µM) | 85 µM | 3.4 | 82 µL/min | 6.3 µg/mL (≈ 20.4 µM) |  |  |  | 
O=S(=O)(c1ccc(Cl)cc1)N1CCc2[nH]c3ccccc3c2C1 | 607 µL/min | 1.6 µg/mL (≈ 4.61 µM) | 53 µM | 4.2 | 74 µL/min | 1.6 µg/mL (≈ 4.61 µM) |  |  |  | 
O=S(=O)(c1ccc(F)cc1)N1CCc2[nH]c3ccccc3c2C1 | > 866 µL/min | 1.6 µg/mL (≈ 4.84 µM) | 52 µM | 4 | 120 µL/min | 1.6 µg/mL (≈ 4.84 µM) |  | 1.2 µM | 4.2 µM | 59%
O=S(=O)(c1ccc(F)cc1)N1CCc2c([nH]c3ccccc23)C1 | 445 µL/min | < 1.6 µg/mL | 53 µM | 4.1 | 120 µL/min | < 1.6 µg/mL |  |  |  | 
O=S(=O)(Cc1ccc(F)cc1)N1CCc2[nH]c3ccccc3c2C1 | 688 µL/min | 1.6 µg/mL (≈ 4.65 µM) | 56 µM | 3.9 | 135 µL/min | 3.1 µg/mL (≈ 9 µM) |  |  |  | 
O=S(=O)(c1ccc(Br)cc1)N1CCc2[nH]c3ccccc3c2C1 | 446 µL/min | < 1.6 µg/mL | 26 µM | 4.4 | 102 µL/min | < 1.6 µg/mL |  | 4.9 µM | 4.4 µM | 67%
O=C1CCN(S(=O)(=O)c2ccc(F)cc2)CC(=O)c2ccccc2N1 | 107 µL/min | 50 µg/mL (≈ 138 µM) | > 280 µM | 2.5 | 40 µL/min | 50 µg/mL (≈ 138 µM) |  |  |  | 
O=C(O)c1ccc2[nH]c3c(c2c1)CN(S(=O)(=O)c1ccc(F)cc1)CC3 | < 7 µL/min | 50 µg/mL (≈ 134 µM) | 240 µM | 1.4 | < 7 µL/min | 3.1 µg/mL (≈ 8.28 µM) |  |  |  | 
CS(=O)(=O)c1ccc(S(=O)(=O)N2CCc3[nH]c4ccccc4c3C2)cc1 | 156 µL/min | 3.1 µg/mL (≈ 7.94 µM) | > 250 µM | 3.4 | 57 µL/min | 3.1 µg/mL (≈ 7.94 µM) |  | 3.3 µM |  | 43%
N#Cc1ccc2[nH]c3c(c2c1)CN(S(=O)(=O)c1ccc(F)cc1)CC3 | 230 µL/min | 1.6 µg/mL (≈ 4.5 µM) | 33 µM | 3.8 | 399 µL/min | 1.6 µg/mL (≈ 4.5 µM) |  |  |  | 
O=C(c1ccc(F)cc1)N1CCc2[nH]c3ccccc3c2C1 | 184 µL/min | 6.3 µg/mL (≈ 21.4 µM) | 69 µM | 3.3 | 111 µL/min | 6.3 µg/mL (≈ 21.4 µM) |  |  |  | 24%
O=S(=O)(c1cnc[nH]1)N1CCc2[nH]c3ccccc3c2C1 | 17 µL/min | 50 µg/mL (≈ 165 µM) | 170 µM | 2 | < 7 µL/min | 50 µg/mL (≈ 165 µM) |  |  |  | 
O=S(=O)(c1cccnc1)N1CCc2[nH]c3ccccc3c2C1 | 561 µL/min | 6.3 µg/mL (≈ 20.1 µM) | 110 µM | 3.1 | 117 µL/min | 12.5 µg/mL (≈ 39.9 µM) |  |  |  | 
O=S(=O)(c1ccc(F)cc1)N1CCc2[nH]c3ncccc3c2C1 | 339 µL/min | 12.5 µg/mL (≈ 37.7 µM) | 82 µM | 3.2 | 62 µL/min | 50 µg/mL (≈ 151 µM) |  |  |  | 
O=C(O)c1ccc(S(=O)(=O)N2CCc3[nH]c4ccccc4c3C2)cc1 | < 7 µL/min | 25 µg/mL (≈ 70.1 µM) | 190 µM | 1.6 | 11 µL/min | 3.1 µg/mL (≈ 8.7 µM) |  |  |  | 
